These results are taken from patent US4874765A, “1,4-Disubstituted piperazines having dopaminergic activity” (Richter Gedeon Vegyeszeti Gyar, priority 1986, dated 1989).

The subject of the first series is dopaminergic system.
Assay: not given
Conditions: cited from earlier work.
`CN1CC=C(c2ccccc2)CC1.Cl` [MPTP, 1-methyl-4-phenyl-1,2,3,6-tetrahydropyridine hydrochloride]: the “selective dopaminergic system-damaging effect on mice” value is recorded as “selective dopaminergic system-damaging effect”.

For the next series, the system named is dopaminergic system.
Assay: not given
Conditions: cited from earlier work. This is another data set of the same source.
Consider `CN1CC=C(c2ccccc2)CC1.Cl` [MPTP, 1-methyl-4-phenyl-1,2,3,6-tetrahydropyridine hydrochloride], for which the “degeneration of the dopaminergic system in men and monkeys” value is “causes the degeneration of the dopaminergic system”.

Tested on in another series: not given
Assay: not given
Conditions: dose higher than 10 mg/kg; mice. On the procedure:
(§1) For these investigations male CFY mice (LATI, Godollo, Hungary) weighing 20-25 g were used. The compounds to be tested were homogenized in 1% Tween 80 solution and administered to the animals in a dose of 0.1 mmole/kg (in the route given in the Table) 1 hour before administering MPTP. MPTP was freshly dissolved in physiological saline solution and subcutaneously given to the mice in a dose of 70 mg/kg. 72 to 96 hours after the administration of MPTP the animals were killed by decapitation, their brain was rapidly removed, cooled in an ice-cold physiological saline solution, the striatum was excised and refrigerated in dry ice.
(§2) As a referenced drug, trihexyphenidyl hydrochloride (α-cyclohexyl-α-phenyl-1-piperidinepropanol hydrochloride) was used in a dose of 10 mg/kg (<0.1 mmole/kg).
As for `Cl.OC(CCN1CCCCC1)(c1ccccc1)C1CCCCC1` (stereo not drawn) [Trihexyphenidyl.HCl, α-cyclohexyl-α-phenyl-1-piperidinepropanol hydrochloride, reference compound], the “lethality at doses above 10 mg/kg” value is “The animals perished on administration of a higher dose”.

The next series relates to striatum dopamine level. The experiment in a line: Protection against MPTP-induced striatal dopamine decrease in mice. The format is in vivo, male CFY mice. Conditions: Mus musculus, ip, 0.1 mmole/kg, 1 hour before MPTP 70 mg/kg s.c., striatum DA 72-96 hours after MPTP, read-out: DA decrease induced by MPTP, % inhibition, i.p. route. The protocol:
The dopaminergic activity of the compounds of the invention was determined by in vitro and in vivo animals tests. On the examination of the in vivo activity, the protective capability of the compounds against the neurotoxic effect of 1-methyl-4-phenyl-1,2,3,6-tetrahydropyridine (MPTP) was also studied. […] Davis et al.: Psychiat.
as §1
The tissues (in a refrigerated condition) were weighed and homogenized in 1 ml of 0.4N perchloric acid solution containing 0.5% of Na2 S2 O5, 0.25 % of Na2 EDTA and 100 ng of M-methyldopamine (internal standard for the determination of catecholamines) in an Ultra-Turrax equipment. The homogenate was centrifuged at 4° C. at 20,000 g for 10 minutes, then 0.8 ml of the supernatent was taken out. After adding 20 mg of activated aluminum oxide, the pH value of the solution was adjusted to 8 by adding 0.5M Tris solution and the tubes were shaken for 20 minutes. The aluminium oxide was settled, the supernatent was removed by suction and washed 3 times with 5 ml of distilled water each. The catecholamines adsorbed on the aluminium oxide were eluted with 1 ml of 0.05N perchloric acid. From a part of the eluate, dopamine was determined by using high pressure liquid chromatography by means of electrochemical detection (Labor MIM Oe-320 pump, 4×150 mm Nucleosil 5 C-18 analytical column and 4×20 mm Nucleosil 5 C-18 supplementary column; electrochemical detector fitted with a glassy-carbon working electrode and an Ag/AgCl2 reference electrode; Eltron potentiostat, LKB 2110 2-channel recorder; with an oxidation potential of 600 mV and as mobile phase 0.1M NaH2 PO4, 1 mM Na2 EDTA, 1 mM octanesulfonic acid containing 8.5% of acetonitrile; flow rate 1 ml/minute).
The protection against the dopamine decrease induced by MPTP was calculated as follows: [formula]
as §2
Take `C=CCN1CCN(CCOC(c2ccc(F)cc2)c2ccc(F)cc2)CC1` [Compound 1, 1-[2[bis(4-fluorophenyl)methoxy]ethyl]-4-(2-propenyl)-piperazine]: the inhibition in vivo at 100 µmol/kg was 98%.
The same measure, in the same setting: the same measure for `CCCN1CCN(CCOC(c2ccc(F)cc2)c2ccc(F)cc2)CC1` [Compound 2]: 100%; for `C=CCN1CCN(CCOC(c2ccc(F)cc2)c2ccc(Cl)cc2)CC1` (centres unmarked) [Compound 4, 1-[2-[(4-chlorophenyl)-(4-fluorophenyl)methoxy]-ethyl]-4-(2-propenyl)piperazine]: 100%; for `C=CCN1CCN(CCOC(c2ccc(F)cc2)c2ccc(Br)cc2)CC1` (centres unmarked) [Compound 5, 1-[2-[(4-bromophenyl)-(4-fluorophenyl)methoxy]-ethyl]-4-(2-propenyl)piperazine]: 100%.
Still for that read-out and setting: with `C=CCN1CCN(CCOC(c2ccc(Cl)cc2)c2ccc(Cl)cc2)CC1` [Compound 6, 1-[2-[bis(4-chlorophenyl)methoxy]ethyl]-4-(2-propenyl)piperazine] the figure was 100%.
On to `C=CCN1CCN(CCOC(c2ccccc2)c2ccc(Cl)c(Cl)c2)CC1` (centres unmarked) [Compound 7, 1-[2-[(3,4-dichlorophenyl)-phenylmethoxy]ethyl]--4-(2-propenyl)-piperazine], for which the inhibition in vivo at 100 µmol/kg was determined as 100%.
Same read-out and setting: the same measure for `CCCN1CCN(CCOC(c2ccc(F)cc2)c2ccc(Cl)cc2)CC1` (centres unmarked) [Compound 8, 1-[2-[(4-chlorophenyl)-(4-flurophenyl)methoxy]-ethyl]-4-propyl-piperazine]: 95%.
The same measure, in the same setting: with `CCCCN1CCN(CCOC(c2ccc(F)cc2)c2ccc(F)cc2)CC1` [Compound 9, 1-[2-[bis(4-flurophenyl)methoxy]ethyl]-4-butyl-piperazine] the figure was 100%; with `C=CCN1CCN(CCOC(C)(c2ccc(F)cc2)c2ccc(F)cc2)CC1` [Compound 10, 1-[2-[1-bis(4-fluorophenyl)ethoxy]ethyl]-4-(2-propenyl)piperazine], 89%.
Same read-out and setting: with `CCCCCC(=O)N1CCN(CCOC(c2ccc(F)cc2)c2ccc(F)cc2)CC1` [Compound 11, 1-[2-[bis(4-fluorophenyl)methoxy]ethyl]-4-(1-oxo-hexyl)piperazine] the figure was 82%.
For `CCCCN1CCN(CCOC(c2ccccc2)c2ccc(Cl)c(Cl)c2)CC1` (centres unmarked) [Compound 15], the inhibition in vivo at 100 µmol/kg amounted to 98%.

Staying with this series, now noted: Mus musculus, po, 0.1 mmole/kg, 1 hour before MPTP 70 mg/kg s.c., striatum DA 72-96 hours after MPTP, read-out: DA decrease induced by MPTP, % inhibition, p.o. route.
With `C=CCN1CCN(CCOC(c2ccc(F)cc2)c2ccc(F)cc2)CC1` [Compound 1, 1-[2[bis(4-fluorophenyl)methoxy]ethyl]-4-(2-propenyl)-piperazine], the inhibition in vivo at 100 µmol/kg is 100%.
Still for that read-out and setting: with `C=CCN1CCN(CCOC(c2ccccc2)c2ccc(F)cc2)CC1` (centres unmarked) [Compound 3, 1-[2-[(4-fluorophenyl)-phenylmethoxy]ethyl]-4-(2-propenyl)piperazine] the figure was 100%; with `C=CCN1CCN(CCOC(c2ccccc2)c2ccc(Cl)c(Cl)c2)CC1` (centres unmarked) [Compound 7, 1-[2-[(3,4-dichlorophenyl)-phenylmethoxy]ethyl]--4-(2-propenyl)-piperazine], 98%; with `C#CCN1CCN(CCOC(c2ccc(F)cc2)c2ccc(F)cc2)CC1` [Compound 12, 1-[2-[bis(4-fluorophenyl)methoxy]ethyl]-4-(2--propynyl)piperazine], 94%.
Same read-out and setting: the same measure for `C=C(C)CN1CCN(CCOC(c2ccc(F)cc2)c2ccc(F)cc2)CC1` [Compound 13, 1-[2-[bis(4-fluorophenyl)methoxy]ethyl]-4-(2-methyl--2-propenyl)-piperazine]: 95%.
For the compound `CCC(=O)N1CCN(CCOC(c2ccc(F)cc2)c2ccc(F)cc2)CC1` [Compound 14, 1-[2-[bis(4-fluorophenyl)methoxy]ethyl]-4-(1-oxo-propyl)piperazine], the inhibition in vivo at 100 µmol/kg is 71%.
Regarding `CCCCN1CCN(CCOC(c2ccc(F)cc2)c2ccc(Cl)cc2)CC1` (centres unmarked) [Compound 16, 1-[2-[(4-chlorophenyl)-(4-fluorophenyl)methoxy]-ethyl]-4-butylpiperazine], the inhibition in vivo at 100 µmol/kg is 86%.
With `CCCCCCN1CCN(CCOC(c2ccc(F)cc2)c2ccc(F)cc2)CC1` [Compound 17, 1-[2-[bis(4-fluorophenyl)methoxy]ethyl]-4-hexyl-piperazine], the inhibition in vivo at 100 µmol/kg came out at 89%.

The series is the same for the next values; noted with them: i.p., 10 mg/kg (<0.1 mmole/kg), before MPTP 70 mg/kg s.c.
Take `Cl.OC(CCN1CCCCC1)(c1ccccc1)C1CCCCC1` (stereo not drawn) [Trihexyphenidyl.HCl, α-cyclohexyl-α-phenyl-1-piperidinepropanol hydrochloride, reference compound]: the “DA decrease induced by MPTP, % inhibition, i.p. route (reference drug)” value was determined as 7%.
